According to US6500472B2, “Folic acid and/or vitamin B12-lactoferrin complex” (Snow Brand Milk Products Co., Ltd., priority 2000, dated 2002):
Read-outs that look alike come from different tables or passages of the source.

What was measured:
lactoferrin [1] = target: T1, lactoferrin (Bos taurus, UniProt P24627); test: Vitamin B12 held by lactoferrin (UF membrane separation, method using microorganisms); type: binding; details: for Amount of vitamin B12 held per 1 μmol of lactoferrin: imidazole buffer pH 6.5
Protocol: The resultant solution was treated with a UF membrane (cut-off molecular weight: 5 kDa; a product of Millipore Corp.) to separate it into the permeate and the retentate. Further, a 50 mM imidazole buffer solution (pH 6.5) was added to the remaining retentate to recover the permeate. This process was repeated four times and the resulting permeate was diluted […] to recover whole free vitamin B12 into the permeate. Further, the pH of the vitamin B12-lactoferrin complex sample in the retentate was adjusted to 2.0, 2 mg of pepsin (a product of Sigma) per 1 ml sample were added, and proteolysis was carried out at 37 C for 60 minutes, after which the pH was further adjusted to 7.5, 2 mg of trypsin (a product of Sigma) per 1 ml sample were added, and proteolysis was carried out at 37 C for 120 minutes. After heating, the supernatant was recovered by centrifugation at 15,000 G. The amount of vitamin B12 was measured by a method using microorganisms (Encyclopedia of Vitamins, the Japanese Association of Vitaminology, Asakura Shoten, p. 501, 1996). Further, a calibration curve was obtained by using cyanocobalmin (a product of Sigma).

[2] = Vitamin B12 reduction after sterilization at 90 C and storage at 35 C for 2 months; type: physicochemical; details: sterilized 90 C 30 min, stored 35 C 2 months
Protocol: […] The resultant admixture was subjected to dialysis using a dialysis membrane (cut-off molecular weight: 5 kDa) against deionized water and then to freeze-drying to obtain a vitamin B12-lactoferrin complex in which 57 molecules of vitamin B12 were held per one molecule of lactoferrin. […] […] Portions (5 ml) of each sample solution were dispensed into heat-resistant glass bottles and sealed, sterilized at 90 C for 30 minutes and then stored at 35 C for 2 months. The reduction rates of vitamin B12 were measured. The amount of vitamin B12 was measured in the same manner as in Test Example 5.

lactoferrin [3] = target: T1, lactoferrin; test: Folic acid held by lactoferrin (UF membrane separation, free folic acid by optical density at 362 nm); type: binding; details: for Amount of folic acid held per 1 μmol of lactoferrin: 50 mM sodium bicarbonate pH 8.5
Protocol: A lactoferrin solution at a concentration of 1 μmol/20 ml was prepared by dissolving lactoferrin in a 50 mM sodium bicarbonate aqueous solution (pH 8.5), and folic acid was added at a concentration of 10 to 300 μmol/20 ml. The resultant admixture was treated with an ultrafiltration (UF) membrane (cut-off molecular weight: 5 kDa; a product of Millipore Corp.) to separate it into the permeate and the retentate. Further, a 50 mM sodium bicarbonate aqueous solution (pH 8.5) was added to the remaining retentate to recover the permeate. This process was repeated four times and the resulting permeate was diluted […] to recover the whole free folic acid into the permeate. The amount of binding-type folic acid remaining in the retentate was calculated from the amount of free folic acid contained in the recovered permeate obtained by measuring optical density at 362 nm. Upon measuring the optical density for folic acid, it was confirmed that no protein was eluted into the permeate and no inhibiting substance derived from proteins existed. Further, a folic acid aqueous solution without protein was simultaneously subjected to the UF membrane treatment to prepare a control sample. These operations and measurements were performed in the dark to prevent decomposition of folic acid. No decomposition of folic acid during the measurement was confirmed by the optical density measurement.

[4] = Light radiation test (40-watt fluorescent lamp), folic acid measured by method using microorganisms; type: physicochemical; details: phosphate buffer pH 6.5
Protocol: A light radiation test was carried out with a folic acid-lactoferrin complex. Namely, to a 1 μmol lactoferrin solution which was prepared by dissolving lactoferrin into 50 ml of a 50 mM sodium bicarbonate aqueous solution (pH 8.5) was added folic acid to make a 100 μmol solution. The resultant admixture was subjected to dialysis using a dialysis membrane (cut-off molecular weight: 10 kDa) against a 5 mM phosphate buffer solution (pH 6.5) and then to freeze-drying to obtain a folic acid-lactoferrin complex. The resulting folic acid-lactoferrin complex powder was dissolved in a 50 mM phosphoric acid buffer solution (pH 6.5) at a concentration of 3 mg/100 ml. Separately, folic acid (a product of Sigma) was dissolved in a 50 mM phosphoric acid buffer solution (pH 6.5) at a concentration of 0.8 mg/100 ml. Each sample solution (5 ml) was dispensed into a transparent polyethylene container, water was added to a depth of 5 mm, and the solution was subjected to radiation with a 40-watt fluorescent lump from a height of 30 mm, after which the amount of folic acid was measured by a method using microorganisms. Namely, the pH of the folic acid-lactoferrin complex sample was adjusted to 2.0, 2 mg of pepsin (a product of Sigma) per 1 ml sample were added, and proteolysis was carried out at 37 C for 120 minutes, after which the pH was further adjusted to 7.5, 2 mg of trypsin (a product of Sigma) per 1 ml sample were added, and proteolysis was carried out at 37 C for 120 minutes. After deaeration, the reaction solution was heated for 5 minutes and centrifuged at 15,000 G to recover the supernatant. The amount of folic acid was measured by a method using microorganisms (Davis, R. E., D. J. Nicol & A. Kelly, J. Clin. Path., vol. 23, pp. 47-53, 1970). Further, a calibration curve was obtained by using folic acid (a product of Sigma). These operations and measurements were carried out in the dark except for the fluorescent radiation.

[5] = Turbidity at 660 nm / solubility in deionized water; type: physicochemical
Protocol: Folic acid and the folic acid-lactoferrin complex used in Test Example 2 were each added to deionized water at a folic acid concentration of 0.1 to 10 μmol/10 ml to measure turbidity at 660 nm.

[6] = Stability of folic acid in citric acid buffer pH 2.5 after sterilization and storage at 37 C; type: physicochemical
Protocol: Folic acid and the folic acid-lactoferrin complex used in Test Example 2 were each added to a 10 mM citric acid buffer solution (pH 2.5) at a folic acid concentration of 0.25 μmol/10 ml. Next, 50 ml portions of the solutions were dispensed in brown bottles, sterilized at 90 C for 30 minutes and then stored at 37 C. The amount of folic acid was measured in the same manner as in Test Example 2.

[7] = cited from earlier work
[8] = Folic acid concentration 0.1 μmol/10 ml in deionized water
[9] = Folic acid concentration 1.0 μmol/10 ml in deionized water
[10] = Folic acid concentration 10 μmol/10 ml in deionized water

T1 sequence (P24627 20-708): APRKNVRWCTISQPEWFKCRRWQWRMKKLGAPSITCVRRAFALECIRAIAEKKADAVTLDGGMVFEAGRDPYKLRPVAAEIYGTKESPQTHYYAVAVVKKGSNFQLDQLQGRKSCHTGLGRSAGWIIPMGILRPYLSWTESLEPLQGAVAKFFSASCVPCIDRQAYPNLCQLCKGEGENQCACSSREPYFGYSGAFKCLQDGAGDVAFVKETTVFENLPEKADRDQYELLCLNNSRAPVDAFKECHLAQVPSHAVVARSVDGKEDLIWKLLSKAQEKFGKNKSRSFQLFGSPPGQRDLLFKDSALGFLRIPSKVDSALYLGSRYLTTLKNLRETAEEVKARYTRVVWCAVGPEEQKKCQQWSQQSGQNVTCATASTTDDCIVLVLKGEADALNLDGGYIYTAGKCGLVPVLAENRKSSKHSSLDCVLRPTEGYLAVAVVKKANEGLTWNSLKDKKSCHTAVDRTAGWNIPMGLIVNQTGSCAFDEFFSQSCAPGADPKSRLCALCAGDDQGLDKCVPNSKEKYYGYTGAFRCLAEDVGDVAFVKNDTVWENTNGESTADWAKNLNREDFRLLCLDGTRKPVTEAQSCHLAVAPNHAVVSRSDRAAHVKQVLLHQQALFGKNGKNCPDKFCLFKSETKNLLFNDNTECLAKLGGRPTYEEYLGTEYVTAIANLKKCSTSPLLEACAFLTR

Vitamin B12
Amount of vitamin B12 held per 1 μmol of lactoferrin (lactoferrin [1]; Vitamin B12 added 10 μmol): 4.2 µmol
Amount of vitamin B12 held per 1 μmol of lactoferrin (lactoferrin [1]; Vitamin B12 added 100 μmol): 41 µmol
Amount of vitamin B12 held per 1 μmol of lactoferrin (lactoferrin [1]; Vitamin B12 added 500 μmol): 130 µmol
Maximal amount of vitamin B12 carried (lactoferrin [1]; maximally): about 100 molecules per one molecule of lactoferrin
Vitamin B12 reduction rate ([2]; pH 3.0): 48%
Vitamin B12 reduction rate ([2]; pH 7.5): 8%

Nc1nc2ncc(CNc3ccc(C(=O)N[C@@H](CCC(=O)O)C(=O)O)cc3)nc2c(=O)[nH]1 [Folic acid]
Amount of folic acid held per 1 μmol of lactoferrin (lactoferrin [3]; Folic acid added 10 μmol): 9.3 µmol
Amount of folic acid held per 1 μmol of lactoferrin (lactoferrin [3]; Folic acid added 50 μmol): 40 µmol
Amount of folic acid held per 1 μmol of lactoferrin (lactoferrin [3]; Folic acid added 100 μmol): 79 µmol
Amount of folic acid held per 1 μmol of lactoferrin (lactoferrin [3]; Folic acid added 200 μmol): 160 µmol
Amount of folic acid held per 1 μmol of lactoferrin (lactoferrin [3]; Folic acid added 300 μmol): 210 µmol
Maximal amount of folic acid incorporated (lactoferrin [3]; maximally): about 200 molecules per one molecule of lactoferrin
Folic acid ([4]; Radiation time 0 min): 0.16 μmol/10 ml
Folic acid ([4]; Radiation time 0.5 min): 0.13 μmol/10 ml
Folic acid ([4]; Radiation time 7 min): 0.03 μmol/10 ml
Appearance of solution [5, 8]: Slightly turbid
Turbidity at 660 nm [5, 8]: 0.01
Appearance of solution [5, 9]: Insoluble
Turbidity at 660 nm [5, 9]: 0.025
Appearance of solution [5, 10]: Insoluble
Turbidity at 660 nm [5, 10]: 0.034
Solubility of folic acid in deionized water ([5]; deionized water): less than 0.1 μmol/10 ml
Folic acid ([6]; Before heat pasteurization, citric acid buffer pH 2.5): 0.28 μmol/10 ml
Folic acid ([6]; Immediately after heat pasteurization (90 C, 30 min), pH 2.5): 0.18 μmol/10 ml
Folic acid ([6]; Stored for 2 months at 37 C, pH 2.5): 0.05 μmol/10 ml
Folic acid ([6]; Stored for 4 months at 37 C, pH 2.5): 0.01 μmol/10 ml
Folic acid lost ([7]; cow's milk, heat sterilization or during storage): about 60%
Folic acid lost ([7]; powdered milk): 25%
